Several values for one entry are separate records, joined by “and”; a condition that tells them apart may be missing. Equal values may be shown once. Read-outs that look alike come from different tables or passages of the source.
What was measured:
Type in all cases: cell-based
[1] = biological target: T1, OATP1B1 (Homo sapiens, UniProt Q9Y6L6); assay: Pyranine transport inhibition in A431 cells overexpressing OATP1B1
T1 construct: expressed in transfected cells; host or cells: A431 cells
T1 sequence (Q9Y6L6 1-691): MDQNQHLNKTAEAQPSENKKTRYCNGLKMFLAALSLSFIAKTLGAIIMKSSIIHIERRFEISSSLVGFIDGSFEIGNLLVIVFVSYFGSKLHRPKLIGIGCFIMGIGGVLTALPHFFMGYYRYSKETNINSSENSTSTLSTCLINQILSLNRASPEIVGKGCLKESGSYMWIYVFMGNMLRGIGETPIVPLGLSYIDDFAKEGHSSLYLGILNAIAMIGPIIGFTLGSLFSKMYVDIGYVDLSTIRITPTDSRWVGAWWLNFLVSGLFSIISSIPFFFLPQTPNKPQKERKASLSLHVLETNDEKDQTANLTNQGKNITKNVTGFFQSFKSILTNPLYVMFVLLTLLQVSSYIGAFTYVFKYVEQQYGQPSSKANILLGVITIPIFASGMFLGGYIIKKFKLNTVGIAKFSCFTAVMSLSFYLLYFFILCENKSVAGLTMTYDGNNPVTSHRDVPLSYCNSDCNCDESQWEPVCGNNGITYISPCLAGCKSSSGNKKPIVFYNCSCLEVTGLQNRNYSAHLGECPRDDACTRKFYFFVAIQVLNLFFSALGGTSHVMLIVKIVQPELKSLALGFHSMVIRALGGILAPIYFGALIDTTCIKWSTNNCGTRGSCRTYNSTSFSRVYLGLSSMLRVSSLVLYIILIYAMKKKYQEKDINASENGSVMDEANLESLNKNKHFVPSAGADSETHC
Description: (§1) A431 cells overexpressing OATP1B1, OATP1B3, or OATP2B1 or their mock transfected controls were generated previously[30] and maintained in Dulbecco’s modified Eagle medium (DMEM, Gibco, Thermofisher Scientific, Waltham, MA, US) supplemented with 10% fetal bovine serum, 2 mM L-glutamine, 100 units/mL penicillin, and 100 μg/mL streptomycin. Expression and function of OATPs in the cell lines were checked regularly.
(§2) Interaction with OATP1B1, OATP1B3, or OATP2B1 was tested in an indirect transport assay using pyranine (8-hydroxypyrene-1,3,6-trisulfonic acid trisodium salt, H1529, Sigma, Merck, Budapest, Hungary) as the test substrate[31],[32] A431 cells overexpressing OATP1B1, OATP1B3, or OATP2B1 or their mock transfected controls were seeded on 96-well plates in a density of 8 × 10^4 cells per well in 200 μL of cell culture medium 1 day prior to the transport measurements. […] The transport reaction was started by the addition of 50 μL of uptake buffer containing pyranine in a final concentration of 10 μM (OATP1B1) or 20 μM (OATP1B3 and OATP2B1), and the cells were further incubated at 37 °C for 15 min (OATP1B1 and OATP2B1) or 30 min (OATP1B3). The reaction was stopped by removing the supernatant. After repeated washing with ice-cold PBS, fluorescence was determined in an Enspire plate reader (PerkinElmer, Waltham, MA) with excitation/emission wavelengths of 460/510 nm. OATP-dependent transport was calculated by extracting fluorescence measured in mock transfected cells and normalized to the fluorescence signal obtained in the absence of the tested compounds (100%). Experiments were repeated in at least three biological replicates.

[2] = biological target: T2, OATP1B3 (Homo sapiens, UniProt Q9NPD5); assay: Pyranine transport inhibition in A431 cells overexpressing OATP1B3
T2 construct: expressed in transfected cells; host or cells: A431 cells
T2 sequence (Q9NPD5 1-702): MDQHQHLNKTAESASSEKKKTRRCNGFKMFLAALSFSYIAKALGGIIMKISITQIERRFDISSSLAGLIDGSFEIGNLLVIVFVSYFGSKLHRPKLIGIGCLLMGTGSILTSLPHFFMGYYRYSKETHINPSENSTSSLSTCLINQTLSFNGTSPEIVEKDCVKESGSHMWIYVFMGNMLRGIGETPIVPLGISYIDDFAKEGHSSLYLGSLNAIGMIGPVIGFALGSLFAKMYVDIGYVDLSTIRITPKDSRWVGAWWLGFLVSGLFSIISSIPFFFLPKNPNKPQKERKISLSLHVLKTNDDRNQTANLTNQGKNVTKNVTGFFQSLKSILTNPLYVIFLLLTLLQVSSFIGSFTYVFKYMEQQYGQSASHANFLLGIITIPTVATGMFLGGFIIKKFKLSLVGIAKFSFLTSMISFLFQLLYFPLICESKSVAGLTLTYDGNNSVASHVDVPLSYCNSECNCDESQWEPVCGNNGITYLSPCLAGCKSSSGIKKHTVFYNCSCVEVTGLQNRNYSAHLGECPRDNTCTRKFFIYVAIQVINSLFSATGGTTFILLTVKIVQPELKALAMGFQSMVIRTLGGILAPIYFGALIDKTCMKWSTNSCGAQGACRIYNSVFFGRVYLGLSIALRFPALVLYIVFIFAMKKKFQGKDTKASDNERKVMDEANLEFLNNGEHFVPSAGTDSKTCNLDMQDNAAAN
Description: as §1, §2

[3] = biological target: T3, OATP2B1 (Homo sapiens, UniProt O94956); assay: Pyranine transport inhibition in A431 cells overexpressing OATP2B1
T3 construct: expressed in transfected cells; host or cells: A431 cells
T3 sequence (O94956 1-709): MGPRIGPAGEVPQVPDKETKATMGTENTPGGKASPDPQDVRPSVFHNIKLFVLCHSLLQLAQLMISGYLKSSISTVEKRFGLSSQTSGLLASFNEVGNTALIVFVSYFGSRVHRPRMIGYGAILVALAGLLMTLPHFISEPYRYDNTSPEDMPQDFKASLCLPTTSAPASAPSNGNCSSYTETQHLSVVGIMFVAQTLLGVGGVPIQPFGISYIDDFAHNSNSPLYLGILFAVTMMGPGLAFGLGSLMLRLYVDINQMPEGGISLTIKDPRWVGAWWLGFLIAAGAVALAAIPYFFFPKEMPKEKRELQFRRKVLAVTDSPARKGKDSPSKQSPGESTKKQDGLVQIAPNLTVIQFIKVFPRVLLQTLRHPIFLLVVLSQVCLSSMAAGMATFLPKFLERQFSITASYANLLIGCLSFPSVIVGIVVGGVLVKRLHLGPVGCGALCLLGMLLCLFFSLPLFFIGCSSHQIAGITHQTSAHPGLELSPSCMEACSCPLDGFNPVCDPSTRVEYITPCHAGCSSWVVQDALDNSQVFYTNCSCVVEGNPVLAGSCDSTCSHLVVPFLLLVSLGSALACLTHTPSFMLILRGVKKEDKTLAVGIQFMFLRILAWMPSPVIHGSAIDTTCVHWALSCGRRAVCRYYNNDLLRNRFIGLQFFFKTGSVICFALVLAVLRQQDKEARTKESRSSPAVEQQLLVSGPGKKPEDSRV
Description: as §1, §2

[4] = full dose-response curve, eight concentrations, Hill1 fit, read-out: IC50 (μM) OATP1B1
[5] = full dose-response curve, eight concentrations, Hill1 fit, read-out: IC50 (μM) OATP1B3
[6] = IC50 (μM) OATP2B1, initial three-point screen (1, 10, 100 μM), category by concentration needed for 50% inhibition, pyranine 20 μM, 15 min, pH 5.5
[7] = full dose-response curve, eight concentrations, Hill1 fit, read-out: IC50 (μM) OATP2B1
[8] = initial three-point screen (1, 10, 100 μM), category by concentration needed for 50% inhibition, pyranine 20 μM, 30 min, pH 5.5
[9] = initial three-point screen (1, 10, 100 μM), category by concentration needed for 50% inhibition, pyranine 10 μM, 15 min, pH 5.5, read-out: IC50 (μM) OATP1B1
[10] = initial three-point screen (1, 10, 100 μM), category by concentration needed for 50% inhibition, pyranine 20 μM, 30 min, pH 5.5, read-out: IC50 (μM) OATP1B3
[11] = initial three-point screen (1, 10, 100 μM), category by concentration needed for 50% inhibition, pyranine 20 μM, 15 min, pH 5.5, read-out: IC50 (μM) OATP2B1

Row | SMILES | IC50 (μM) OATP1B3 [2, 8] | IC50 [1, 9] [µM] | IC50 [2, 10] [µM] | IC50 [3, 11] [µM] | further results
1 | O=C(Cc1ccccc1[N+](=O)[O-])NCC1CC2c3ccccc3C1c1ccccc12 (centres unmarked) [B4, [O-][N+](=O)c1ccccc1CC(=O)NCC2CC3c4ccccc4C2c5ccccc35] | – | – | – | – | IC50 [1, 4]: ~10 µM; IC50 at 15 min ([1]; human, pH 5.5): > 10 µM; IC50 ([2]; IC50 (μM) OATP1B3, initial three-point screen (1, 10, 100 μM), category by concentration needed for 50% inhibition, pyranine 20 μM, 30 min, pH 5.5): 1 to 10 µM; IC50 [2, 5]: ~10 µM; IC50 [3, 6]: 1 to 10 µM; IC50 [3, 7]: 2.4 µM and 2.37 µM
2 | O=C(NCc1ccccn1)c1ccc2c(c1)S(=O)(=O)c1ccccc1C2=O [B5, O=C(NCc1ccccn1)c2ccc3C(=O)c4ccccc4S(=O)(=O)c3c2] | Activated | – | – | – | IC50 [1]: > 10 µM; IC50 [3, 6]: 1 to 10 µM
3 | O=C(CSc1nc2cc(C(F)(F)F)ccc2n1Cc1ccccc1)c1ccc[nH]1 [B6, FC(F)(F)c1ccc2c(c1)nc(SCC(=O)c3ccc[nH]3)n2Cc4ccccc4] | – | > 10 | > 10 | > 10 | –
4 | CSCCC(NC(=O)c1ccco1)C(=O)OCc1cc(=O)oc2cc(O)ccc12 (centres unmarked) [B7, CSCCC(NC(=O)c1occc1)C(=O)OCC2=CC(=O)Oc3cc(O)ccc23] | – | 1 to 10 | > 10 | 1 to 10 | –
5 | CCc1ccccc1NC(=O)CN1CCN(C(=O)c2cc(-c3ccncc3)nc3ccccc23)CC1 [C3, CCc1ccccc1NC(=O)CN2CCN(CC2)C(=O)c3cc(nc4ccccc34)c5ccncc5] | – | 1 to 10 | > 10 | 1 to 10 | –
6 | Cc1cccn2cc(COC(=O)c3ccc4c(c3)C(=O)N(Cc3ccco3)C4=O)nc12 [C4, Cc1cccn2cc(COC(=O)c3ccc4C(=O)N(Cc5occc5)C(=O)c4c3)nc12] | no effect | – | – | – | IC50 [1]: > 10 µM; IC50 [3, 6]: > 10 µM
7 | Cc1cccc2nc(CSc3nc4sc5c(c4c(=O)n3Cc3ccccc3)CCCC5)cn12 [C5, Cc1cccc2nc(CSC3=Nc4sc5CCCCc5c4C(=O)N3Cc6ccccc6)cn12] | no effect | > 10 | – | > 10 | –
8 | CC(C)c1cc(C(=O)N2CCC(n3c(=O)[nH]c4ccccc43)CC2)c2cnn(C(C)C)c2n1 [C6, CC(C)c1cc(C(=O)N2CCC(CC2)N3C(=O)Nc4ccccc34)c5cnn(C(C)C)c5n1] | – | 1 to 10 | 1 to 10 | 1 to 10 | –
9 | O=C(O)c1cc(/C=C/c2c(-c3ccccc3)nc3ccccn23)nc2ccccc12 [C7, OC(=O)c1cc(\C=C\c2c(nc3ccccn23)c4ccccc4)nc5ccccc15] | – | – | 1 to 10 | < 1 | IC50 [1]: > 10 µM; IC50 [2, 5]: 5.4 µM; fold lower affinity on OATP1B3 than on OATP2B1 ([2]; ratio of IC50 OATP1B3 / OATP2B1): 135 fold; IC50 [3, 7]: 0.04 µM
10 | O=C1NC2(CCCc3sccc32)C(=O)N1CC(=O)N1c2ccccc2OCC1c1ccccc1 (centres unmarked) [D2, O=C(CN1C(=O)NC2(CCCc3sccc23)C1=O)N4C(COc5ccccc45)c6ccccc6] | – | > 10 | > 10 | > 10 | –
11 | O=C(CCN1C(=O)NC2(CCCC2)C1=O)Nc1nc(-c2ccc3c(c2)CCC3)cs1 [D3, O=C(CCN1C(=O)NC2(CCCC2)C1=O)Nc3nc(cs3)c4ccc5CCCc5c4] | no effect | – | – | > 10 | IC50 (μM) OATP1B1 ([1]; initial three-point screen (1, 10, 100 μM), category by concentration needed for 50% inhibition, pyranine 10 μM, 15 min, pH 5.5): no effect
12 | O=C(COc1ccc([N+](=O)[O-])cc1)Nc1c(C(=O)N2CCOCC2)oc2ccccc12 [D7, [O-][N+](=O)c1ccc(OCC(=O)Nc2c(oc3ccccc23)C(=O)N4CCOCC4)cc1] | no effect | – | – | – | IC50 [1]: > 10 µM; IC50 [3, 6]: > 10 µM
13 | COc1ccc(C2(c3ccc(OC)cc3)NC(=O)N(CC(=O)c3ccc4c(c3)OCO4)C2=O)cc1 [E2, COc1ccc(cc1)C2(NC(=O)N(CC(=O)c3ccc4OCOc4c3)C2=O)c5ccc(OC)cc5] | – | > 10 | 1 to 10 | 1 to 10 | –
14 | Cn1c(=O)[nH]c(=O)c2c1nc(N/N=C1/C(=O)Nc3ccccc31)n2CCCc1ccccc1 [E3, CN1C(=O)NC(=O)c2c1nc(N\N=C/3\C(=O)Nc4ccccc34)n2CCCc5ccccc5] | – | 1 to 10 | 1 to 10 | – | IC50 [1, 4]: 2.69 µM; IC50 [2, 5]: 1.53 µM; IC50 [3, 7]: 1.32 µM

Source: article PMC9795544, “Identifying Novel Inhibitors for Hepatic Organic Anion Transporting Polypeptides by Machine Learning-Based Virtual Screening” (Journal of Chemical Information and Modeling, 2022)
